How the values were obtained:
Type in all cases: cell-based
Settings in all cases: relative growth vs active compound-free control (100%), 405 nm, 7 days after inoculation
[1] = system: Septoria tritici; test: Activity against leaf blotch on wheat caused by Septoria tritici (Septtr), microtiterplate test
[2] = system: Pyricularia oryzae
[3] = system: Botrytis cinerea; test: Activity against the grey mold Botrytis cinerea in the microtiterplate test (Botrci)

SMILES	Growth (%) at 8 ppm Septtr [1] [%]	Growth (%) at 31 ppm Pyrior [2] [%]	Growth (%) at 31 ppm Botrci [3] [%]
CC(O)(Cn1cncn1)c1ccc(Oc2ccc(Cl)cc2)cc1C(F)(F)F (stereo not drawn) [compound 24]	0	0	0
CC(O)(Cn1cncn1)c1ccc(Oc2ccc(Cl)cc2Cl)cc1C(F)(F)F (stereo not drawn) [compound 25]	0	2	3
CC(O)(Cn1cncn1)c1ccc(Oc2ccccc2C(F)(F)F)cc1C(F)(F)F (stereo not drawn) [compound 26]	1	–	–
CC(O)(Cn1cncn1)c1ccc(Oc2ccc(C(F)(F)F)cc2)cc1C(F)(F)F (stereo not drawn) [compound 27]	0	1	18
CC(O)(Cn1cncn1)c1ccc(Oc2ccc(F)cc2)cc1C(F)(F)F (stereo not drawn) [compound 28]	0	7	0
CC(O)(Cn1cncn1)c1ccc(Oc2ccc(F)cc2F)cc1C(F)(F)F (stereo not drawn) [compound 29]	5	0	0
CC(O)(Cn1cncn1)c1ccc(Oc2ccc(Cl)cc2)cc1Cl (stereo not drawn) [compound 31]	0	2	3
CC(O)(Cn1cncn1)c1ccc(Oc2ccc(Cl)cc2Cl)cc1Cl (stereo not drawn) [compound 32]	12	3	9
CC(O)(Cn1cncn1)c1ccc(Oc2ccc(F)cc2)cc1Cl (stereo not drawn) [compound 33]	1	0	0
CC(O)(Cn1cncn1)c1ccc(Oc2ccc(F)cc2F)cc1Cl (stereo not drawn) [compound 34]	0	0	1
CC(O)(Cn1cncn1)c1ccc(Oc2ccccc2C(F)(F)F)cc1Cl (stereo not drawn) [compound 35]	0	1	1
CC(O)(Cn1cncn1)c1ccc(Oc2ccc(C(F)(F)F)cc2)cc1Cl (stereo not drawn) [compound 36]	–	14	–
OC(Cn1cncn1)(c1ccc(Oc2ccc(F)cc2)cc1Cl)C1CC1 (stereo not drawn) [compound 37]	0	1	1
OC(Cn1cncn1)(c1ccc(Oc2ccccc2C(F)(F)F)cc1Cl)C1CC1 (stereo not drawn) [compound 38]	1	1	2
OC(Cn1cncn1)(c1ccc(Oc2ccc(Cl)cc2Cl)cc1Cl)C1CC1 (stereo not drawn) [compound 39]	14	2	0
OC(Cn1cncn1)(c1ccc(Oc2ccc(C(F)(F)F)cc2)cc1Cl)C1CC1 (stereo not drawn) [compound 40]	2	1	8
OC(Cn1cncn1)(c1ccc(Oc2ccc(F)cc2F)cc1Cl)C1CC1 (stereo not drawn) [compound 41]	0	0	1
OC(Cn1cncn1)(c1ccc(Oc2ccc(Cl)cc2)cc1Cl)C1CC1 (stereo not drawn) [compound 42]	0	1	3
CC(C)(C)C(O)(Cn1cncn1)c1ccc(Oc2ccc(Cl)cc2)cc1 (stereo not drawn) [compound 43]	0	–	3
CC(C)(C)C(O)(Cn1cncn1)c1ccc(Oc2ccc(F)cc2)cc1 (stereo not drawn) [compound 44]	0	0	1
CC(C)(C)C(O)(Cn1cncn1)c1ccc(Oc2ccc(F)cc2F)cc1 (stereo not drawn) [compound 45]	0	1	0
CC(C)(C)C(O)(Cn1cncn1)c1ccc(Oc2ccc(Cl)cc2Cl)cc1 (stereo not drawn) [compound 46]	4	2	6
CC(C)(C)C(O)(Cn1cncn1)c1ccc(Oc2ccccc2C(F)(F)F)cc1 (stereo not drawn) [compound 47]	0	1	15
CC(C)(C)C(O)(Cn1cncn1)c1ccc(Oc2ccc(C(F)(F)F)cc2)cc1 (stereo not drawn) [compound 48]	0	1	–
CCC(O)(Cn1cncn1)c1ccc(Oc2ccc(Cl)cc2)cc1Cl (stereo not drawn) [compound 49]	3	1	2
CCC(O)(Cn1cncn1)c1ccc(Oc2ccc(F)cc2)cc1Cl (stereo not drawn) [compound 50]	0	9	2
CCC(O)(Cn1cncn1)c1ccc(Oc2ccc(F)cc2F)cc1Cl (stereo not drawn) [compound 51]	0	0	0
CCC(O)(Cn1cncn1)c1ccc(Oc2ccc(Cl)cc2Cl)cc1Cl (stereo not drawn) [compound 52]	0	1	3
CCC(O)(Cn1cncn1)c1ccc(Oc2ccccc2C(F)(F)F)cc1Cl (stereo not drawn) [compound 53]	0	2	3
CCC(O)(Cn1cncn1)c1ccc(Oc2ccc(C(F)(F)F)cc2)cc1Cl (stereo not drawn) [compound 54]	0	2	4

Reference: patent US10450279B2 (priority 2014, dated 2019)
